Test system: 292921-168-R-J2-PDC complex spheroid viability
Test: Anticancer human tumor 292921-168-R-J2-PDC patient-derived pancreatic carcinoma cell line growth inhibition
Conditions: for IC50: curve of first compound; for viability, T/C: stronger effect = lower value
In short: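 Drug combinations with the LSD1 inhibitor iadademstat tested on tumor cells co-cultured as spheroids with endothelial cells and mesenchymal stem cells. Concentrations descended in half-log increments from clinical Cmax or 10 microM.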

[1] = second compound 0.1 µM, first compound 0.000316 µM
[2] = second compound 0.1 µM, first compound 0.001 µM
[3] = second compound 0.1 µM, first compound 0.00316 µM
[4] = second compound 0.1 µM, first compound 0.01 µM
[5] = second compound 0.1 µM, first compound 0.0316 µM
[6] = second compound 0.1 µM, first compound 0.1 µM
[7] = second compound 0.316 µM, first compound 0.000316 µM
[8] = second compound 0.316 µM, first compound 0.001 µM
[9] = second compound 0.316 µM, first compound 0.00316 µM
[10] = second compound 0.316 µM, first compound 0.01 µM
[11] = second compound 0.316 µM, first compound 0.0316 µM
[12] = second compound 0.316 µM, first compound 0.1 µM
[13] = second compound 1 µM, first compound 0.000316 µM
[14] = second compound 1 µM, first compound 0.001 µM
[15] = second compound 1 µM, first compound 0.00316 µM
[16] = second compound 1 µM, first compound 0.01 µM
[17] = second compound 1 µM, first compound 0.0316 µM
[18] = second compound 1 µM, first compound 0.1 µM
[19] = second compound 3.16 µM, first compound 0.000316 µM
[20] = second compound 3.16 µM, first compound 0.001 µM
[21] = second compound 3.16 µM, first compound 0.00316 µM
[22] = second compound 3.16 µM, first compound 0.01 µM
[23] = second compound 3.16 µM, first compound 0.0316 µM
[24] = second compound 3.16 µM, first compound 0.1 µM
[25] = second compound 10 µM, first compound 0.000316 µM
[26] = second compound 10 µM, first compound 0.001 µM
[27] = second compound 10 µM, first compound 0.00316 µM
[28] = second compound 10 µM, first compound 0.01 µM
[29] = second compound 10 µM, first compound 0.0316 µM
[30] = second compound 10 µM, first compound 0.1 µM
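Also: seven day compound exposure before luminescent viability read.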
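For viability, T/C in this document: 100% = DMSO vehicle control wells.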

Row | SMILES | IC50 (second compound 0.1 µM) [nM] | IC50 (second compound 0.316 µM) [nM] | IC50 (second compound 1 µM) [nM] | IC50 (second compound 3.16 µM) [nM] | IC50 (second compound 10 µM) [nM] | viability, T/C [3] [%] | viability, T/C [4] [%] | viability, T/C [5] [%] | viability, T/C [6] [%] | viability, T/C [9] [%] | viability, T/C [10] [%] | viability, T/C [11] [%] | viability, T/C [12] [%] | viability, T/C [15] [%] | viability, T/C [16] [%] | viability, T/C [17] [%] | viability, T/C [18] [%] | viability, T/C [21] [%] | viability, T/C [22] [%] | viability, T/C [23] [%] | other results
1 | CC(C)CC(NC(=O)C(Cc1ccccc1)NC(=O)c1cnccn1)B(O)O (stereo not given) + NC1CC1c1ccc(-c2cccc(O)c2)cc1 | < 0.316 | < 0.316 | < 0.316 | < 0.316 | < 0.316 | 0.47 | 0.39 | 0.14 | 0.17 | 0.24 | 0.18 | 0.18 | 0.17 | 0.21 | 0.19 | 0.22 | 0.17 | 0.17 | 0.14 | 0.46 | viability, T/C [1]: 21.2%; viability, T/C [2]: 1.11%; viability, T/C [7]: 18.8%; viability, T/C [8]: 1.91%; viability, T/C [13]: 16.9%; viability, T/C [14]: 1.68%; viability, T/C [19]: 15.4%; viability, T/C [20]: 0.61%; viability, T/C [24]: 0.31%; viability, T/C [25]: 12.3%; viability, T/C [26]: 0.8%; viability, T/C [27]: 0.29%; viability, T/C [28]: 0.54%; viability, T/C [29]: 0.45%; viability, T/C [30]: 0.25%
2 | CC(C)CC(NC(=O)CNC(=O)c1cc(Cl)ccc1Cl)B1OC(=O)CC(CC(=O)O)(C(=O)O)O1 (stereo not given) + NC1CC1c1ccc(-c2cccc(O)c2)cc1 | 5.69 | 5.54 | 4.78 | 4.64 | 3.67 | 81.5 | 19.6 | 3.61 | 1.34 | 80.4 | 17.9 | 3.08 | 1.87 | 68.2 | 17.2 | 3.17 | 1.85 | 67.8 | 14.5 | 2.89 | viability, T/C [1]: 88.2%; viability, T/C [2]: 93.4%; viability, T/C [7]: 80%; viability, T/C [8]: 84.3%; viability, T/C [13]: 66.2%; viability, T/C [14]: 74%; viability, T/C [19]: 70.7%; viability, T/C [20]: 71.2%; viability, T/C [24]: 1.44%; viability, T/C [25]: 61.6%; viability, T/C [26]: 67.1%; viability, T/C [27]: 55.4%; viability, T/C [28]: 11.8%; viability, T/C [29]: 2.07%; viability, T/C [30]: 0.75%
3 | COc1cc(Nc2ncc3c(n2)-c2ccc(Cl)cc2C(c2c(F)cccc2OC)=NC3)ccc1C(=O)O + NC1CC1c1ccc(-c2cccc(O)c2)cc1 | < 3.16 | < 3.16 | < 3.16 | < 3.16 | < 3.16 | 36.8 | 40.9 | 37.5 | 31.9 | 39.2 | 44.5 | 37.5 | 31.4 | 37.2 | 35.9 | 34.6 | 26 | 30.4 | 36.5 | 35.2 | viability, T/C (second compound 0.1 µM, first compound 0.316 µM): 24.1%; viability, T/C (second compound 0.1 µM, first compound 1 µM): 16.4%; viability, T/C (second compound 0.316 µM, first compound 0.316 µM): 24.8%; viability, T/C (second compound 0.316 µM, first compound 1 µM): 16.5%; viability, T/C (second compound 1 µM, first compound 0.316 µM): 20.2%; viability, T/C (second compound 1 µM, first compound 1 µM): 15.9%; viability, T/C [24]: 28.1%; viability, T/C (second compound 3.16 µM, first compound 0.316 µM): 23.7%; viability, T/C (second compound 3.16 µM, first compound 1 µM): 15%; viability, T/C [27]: 34.2%; viability, T/C [28]: 32.7%; viability, T/C [29]: 34.2%; viability, T/C [30]: 28%; viability, T/C (second compound 10 µM, first compound 0.316 µM): 19.4%; viability, T/C (second compound 10 µM, first compound 1 µM): 14.9%
